Here are results for two compounds from ChEMBL document CHEMBL1123748, “Opioid agonist and antagonist activities of monofunctional nitrogen mustard analogues of beta-chlornaltrexamine” (1987).

Assay [1] is filed under the species Cavia porcellus. Kind of assay: Antagonist activity was determined by partial agonist activity of EK in Guinea pig ileum (GPI); irreversible agonist activity. The format is functional, organism-based.
Assay [2] is filed under the species Cavia porcellus. Kind of assay: Antagonist activity was determined by partial agonist activity of morphine in Guinea pig ileum (GPI); irreversible agonist activity. It counts as functional, organism-based.
The species entered for assay [3] is Cavia porcellus. In words: Opioid agonist activity was determined as potency ratio relative to morphine in Guinea pig ileum (GPI). The format is functional.
Assay [4] is filed under the species Mus musculus. In words: IC50 ratio for leucine-enkephalin rather than DADLE determined in Mouse vas deferens (MVD). It counts as functional.
For assay [5], the species on record is Mus musculus. Kind of assay: Opioid agonist activity was determined in Mouse vas deferens (MVD). It counts as functional.
The species named for assay [6] is Cavia porcellus. Kind of assay: Antagonist activity was determined by partial agonist activity of EK in Guinea pig ileum (GPI). It counts as functional.
The species named for assay [7] is Cavia porcellus. Kind of assay: Antagonist activity was determined by partial agonist activity of morphine in Guinea pig ileum (GPI). It counts as functional.

As a reminder, the IC20 is the concentration at which the effect reaches the 20% level. A low value points to greater potency. For `CN(CCCl)[C@H]1CC[C@@]2(O)C3Cc4ccc(O)c5c4C2(CCN3CC2CC2)[C@H]1O5` (stereo not given in full), the IC50 ratio result is “irreversible agonist activity” in the assay listed under Cavia porcellus [1], “irreversible agonist activity” in the assay listed under Cavia porcellus [2] and 5 in the assay filed under Mus musculus [4]. Further, the Potency ratio in the assay listed under Cavia porcellus [3] is given as 159. The IC20 in the assay listed under Mus musculus [5] worked out at 3 nM.
With `CN(CCCl)[C@@H]1CC[C@@]2(O)C3Cc4ccc(O)c5c4C2(CCN3CC2CC2)[C@H]1O5` (stereo not given in full), the IC50 ratio amounted to 17.3 in the assay listed under Cavia porcellus [6], 48.8 in the assay listed under Cavia porcellus [7] and 2.9 in the assay filed under Mus musculus [4]. For the same compound, in the assay listed under Cavia porcellus [3], the Potency ratio amounted to 5.3. The compound further registered an IC20 in the assay listed under Mus musculus [5] of 10 nM.
